The target of assay [1] is Proto-oncogene tyrosine-protein kinase ROS (Homo sapiens) (UniProt P08922). The assay is described as follows: Inhibition of ROS1 (unknown origin) at 1 uM by Ambit Kinomescan binding assay relative to control.
In assay [2] the test system is Tyrosine-protein kinase ABL1 (Homo sapiens), P00519 [F317L]. As to the kind of experiment: Inhibition of ABL1 F317L mutant (unknown origin) at 10 uM by Ambit Kinomescan binding assay relative to control.
The target in assay [3] is T1, Serine/threonine-protein kinase Sgk3 (Homo sapiens) (UniProt Q96BR1).
T1 sequence (whole entry): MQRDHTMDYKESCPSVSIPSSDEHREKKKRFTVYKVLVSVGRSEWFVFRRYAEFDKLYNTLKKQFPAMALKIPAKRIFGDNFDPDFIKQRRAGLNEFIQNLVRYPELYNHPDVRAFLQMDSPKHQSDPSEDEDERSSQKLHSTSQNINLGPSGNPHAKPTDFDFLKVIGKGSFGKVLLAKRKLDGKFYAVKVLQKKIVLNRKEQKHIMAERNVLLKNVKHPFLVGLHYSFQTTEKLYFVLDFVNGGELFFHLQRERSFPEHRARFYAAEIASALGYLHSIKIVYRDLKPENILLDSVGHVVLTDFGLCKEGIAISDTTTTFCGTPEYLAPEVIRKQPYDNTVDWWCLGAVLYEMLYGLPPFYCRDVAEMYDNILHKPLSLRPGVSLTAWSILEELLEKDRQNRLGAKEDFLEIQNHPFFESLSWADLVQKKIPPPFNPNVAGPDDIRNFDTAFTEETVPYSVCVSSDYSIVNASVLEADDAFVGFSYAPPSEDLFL
The assay is described as follows: Inhibition of SGK3 Lys1 labeling site in human A-375 cells at 0.5 uM by KiNativ Profiling analysis relative to control. It counts as cell-based.

Assay [4] concerns the target Serine/threonine-protein kinase 10 (Homo sapiens) (UniProt O94804). The assay is described as follows: Inhibition of LOK K2 labeling site harbouring DLKAGNVLMTLEGDIR in human Huh-7 cells at 10 uM by KiNativ Profiling analysis relative to control. It counts as cell-based.
Assay [5] deals with T2, Serine/threonine-protein kinase TBK1 (Homo sapiens) (UniProt Q9UHD2).
T2 sequence (whole entry): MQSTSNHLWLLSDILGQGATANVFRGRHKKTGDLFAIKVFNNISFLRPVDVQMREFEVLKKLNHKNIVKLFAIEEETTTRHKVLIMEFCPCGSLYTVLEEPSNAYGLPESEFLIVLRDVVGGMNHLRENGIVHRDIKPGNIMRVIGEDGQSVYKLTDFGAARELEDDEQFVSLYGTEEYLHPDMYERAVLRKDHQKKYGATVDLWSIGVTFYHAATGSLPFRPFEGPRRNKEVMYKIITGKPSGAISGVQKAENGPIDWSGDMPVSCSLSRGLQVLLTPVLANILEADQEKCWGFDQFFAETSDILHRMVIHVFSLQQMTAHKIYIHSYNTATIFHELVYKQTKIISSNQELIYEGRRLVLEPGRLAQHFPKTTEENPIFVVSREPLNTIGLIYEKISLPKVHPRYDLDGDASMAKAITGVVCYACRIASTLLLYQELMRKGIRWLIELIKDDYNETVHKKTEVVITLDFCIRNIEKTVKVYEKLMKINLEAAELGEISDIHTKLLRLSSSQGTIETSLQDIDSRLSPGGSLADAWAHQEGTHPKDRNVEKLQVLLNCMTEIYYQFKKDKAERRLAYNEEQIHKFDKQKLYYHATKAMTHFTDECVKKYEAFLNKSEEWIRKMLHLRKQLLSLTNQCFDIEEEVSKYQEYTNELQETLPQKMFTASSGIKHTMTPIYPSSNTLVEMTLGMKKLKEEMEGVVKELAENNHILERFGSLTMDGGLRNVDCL
As to the kind of experiment: Inhibition of TBK1 K2 labeling site in human Huh-7 cells at 1 uM by KiNativ Profiling analysis relative to control. It counts as cell-based.

Assay [6] concerns the target DNA-dependent protein kinase catalytic subunit (Homo sapiens) (UniProt P78527). The assay is described as follows: Inhibition of PRKDC ATP labeling site harbouring EHPFLVKGGEDLR in human Huh-7 cells at 1 uM by KiNativ Profiling analysis relative to control. The class given is cell-based.
Assay [7] addresses T3, Phosphatidylinositol 5-phosphate 4-kinase type-2 alpha (Homo sapiens) (UniProt P48426).
T3 sequence (whole entry): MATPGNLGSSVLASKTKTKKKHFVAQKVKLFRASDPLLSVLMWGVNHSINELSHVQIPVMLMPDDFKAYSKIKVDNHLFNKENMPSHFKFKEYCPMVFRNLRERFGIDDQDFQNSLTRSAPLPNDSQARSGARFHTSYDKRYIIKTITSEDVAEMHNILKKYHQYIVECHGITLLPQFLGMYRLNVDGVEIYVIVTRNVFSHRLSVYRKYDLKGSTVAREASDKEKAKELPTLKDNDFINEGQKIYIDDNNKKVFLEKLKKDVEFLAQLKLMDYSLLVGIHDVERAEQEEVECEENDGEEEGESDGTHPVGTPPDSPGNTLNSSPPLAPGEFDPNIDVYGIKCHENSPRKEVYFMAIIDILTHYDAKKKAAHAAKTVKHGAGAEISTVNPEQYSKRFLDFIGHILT
The assay is described as follows: Inhibition of PIP4K2A ATP labeling site harbouring AKELPTLKDNDFINEGQK in human Huh-7 cell lysate at 1 uM by KiNativ Profiling analysis relative to control. The class given is subcellular.

Sequence of Proto-oncogene tyrosine-protein kinase ROS (Homo sapiens) (P08922 whole entry): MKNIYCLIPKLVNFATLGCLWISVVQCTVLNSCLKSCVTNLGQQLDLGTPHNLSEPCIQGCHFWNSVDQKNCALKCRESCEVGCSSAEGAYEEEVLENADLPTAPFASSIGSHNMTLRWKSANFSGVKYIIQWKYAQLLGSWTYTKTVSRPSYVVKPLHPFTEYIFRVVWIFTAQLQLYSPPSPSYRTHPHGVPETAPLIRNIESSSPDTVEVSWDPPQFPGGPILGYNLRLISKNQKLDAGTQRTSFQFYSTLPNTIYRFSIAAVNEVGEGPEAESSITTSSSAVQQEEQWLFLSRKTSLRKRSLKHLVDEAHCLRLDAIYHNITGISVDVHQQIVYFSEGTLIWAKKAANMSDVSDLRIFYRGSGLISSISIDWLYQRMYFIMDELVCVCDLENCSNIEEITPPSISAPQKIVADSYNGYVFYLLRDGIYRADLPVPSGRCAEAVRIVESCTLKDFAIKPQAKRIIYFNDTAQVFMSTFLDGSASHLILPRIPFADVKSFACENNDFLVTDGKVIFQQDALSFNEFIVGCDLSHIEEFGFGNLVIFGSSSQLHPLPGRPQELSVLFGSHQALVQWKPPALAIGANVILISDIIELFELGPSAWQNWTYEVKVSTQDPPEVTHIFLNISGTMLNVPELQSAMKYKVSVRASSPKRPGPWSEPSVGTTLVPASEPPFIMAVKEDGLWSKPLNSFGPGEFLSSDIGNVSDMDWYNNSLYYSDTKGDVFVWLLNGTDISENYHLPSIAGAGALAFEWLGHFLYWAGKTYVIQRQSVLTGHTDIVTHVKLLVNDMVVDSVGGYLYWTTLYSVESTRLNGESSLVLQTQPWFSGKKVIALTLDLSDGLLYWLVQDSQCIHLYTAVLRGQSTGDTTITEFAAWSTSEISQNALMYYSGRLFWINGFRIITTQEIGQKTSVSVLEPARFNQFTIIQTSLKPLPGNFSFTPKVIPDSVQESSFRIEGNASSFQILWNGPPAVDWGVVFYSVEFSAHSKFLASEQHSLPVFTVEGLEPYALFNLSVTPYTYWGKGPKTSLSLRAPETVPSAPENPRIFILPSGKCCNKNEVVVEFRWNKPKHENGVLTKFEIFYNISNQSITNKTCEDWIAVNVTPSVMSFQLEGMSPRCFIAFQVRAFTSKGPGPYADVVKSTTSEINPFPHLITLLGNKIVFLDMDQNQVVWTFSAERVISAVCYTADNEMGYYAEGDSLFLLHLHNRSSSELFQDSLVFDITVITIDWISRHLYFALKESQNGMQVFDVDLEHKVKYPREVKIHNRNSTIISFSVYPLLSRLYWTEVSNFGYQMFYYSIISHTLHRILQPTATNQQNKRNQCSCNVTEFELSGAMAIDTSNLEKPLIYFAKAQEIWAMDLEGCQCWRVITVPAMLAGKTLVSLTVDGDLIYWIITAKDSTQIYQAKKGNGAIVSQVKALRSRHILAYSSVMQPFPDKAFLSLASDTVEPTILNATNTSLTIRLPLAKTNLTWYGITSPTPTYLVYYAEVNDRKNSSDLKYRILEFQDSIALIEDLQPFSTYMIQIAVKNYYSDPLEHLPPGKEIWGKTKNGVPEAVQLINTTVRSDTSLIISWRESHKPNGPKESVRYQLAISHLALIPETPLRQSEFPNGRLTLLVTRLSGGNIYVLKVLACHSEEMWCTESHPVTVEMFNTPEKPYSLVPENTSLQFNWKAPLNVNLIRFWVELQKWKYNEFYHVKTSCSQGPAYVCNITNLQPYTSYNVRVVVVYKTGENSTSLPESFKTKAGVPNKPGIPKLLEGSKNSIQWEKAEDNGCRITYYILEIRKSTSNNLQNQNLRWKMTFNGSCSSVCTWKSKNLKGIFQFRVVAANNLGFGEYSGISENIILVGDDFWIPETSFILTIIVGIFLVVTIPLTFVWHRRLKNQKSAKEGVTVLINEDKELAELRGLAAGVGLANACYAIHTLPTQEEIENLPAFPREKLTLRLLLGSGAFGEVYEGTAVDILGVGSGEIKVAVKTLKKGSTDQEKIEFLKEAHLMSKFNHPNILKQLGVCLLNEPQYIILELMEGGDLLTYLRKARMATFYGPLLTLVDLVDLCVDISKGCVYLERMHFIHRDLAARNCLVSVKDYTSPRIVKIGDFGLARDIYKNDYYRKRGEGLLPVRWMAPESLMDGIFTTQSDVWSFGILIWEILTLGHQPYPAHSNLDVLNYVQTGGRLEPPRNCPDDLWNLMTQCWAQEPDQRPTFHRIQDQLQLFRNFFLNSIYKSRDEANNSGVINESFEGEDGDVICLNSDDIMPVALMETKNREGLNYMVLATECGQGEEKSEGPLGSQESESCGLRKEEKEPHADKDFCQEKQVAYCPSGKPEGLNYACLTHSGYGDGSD
Sequence of Serine/threonine-protein kinase 10 (Homo sapiens) (O94804 whole entry, looked up): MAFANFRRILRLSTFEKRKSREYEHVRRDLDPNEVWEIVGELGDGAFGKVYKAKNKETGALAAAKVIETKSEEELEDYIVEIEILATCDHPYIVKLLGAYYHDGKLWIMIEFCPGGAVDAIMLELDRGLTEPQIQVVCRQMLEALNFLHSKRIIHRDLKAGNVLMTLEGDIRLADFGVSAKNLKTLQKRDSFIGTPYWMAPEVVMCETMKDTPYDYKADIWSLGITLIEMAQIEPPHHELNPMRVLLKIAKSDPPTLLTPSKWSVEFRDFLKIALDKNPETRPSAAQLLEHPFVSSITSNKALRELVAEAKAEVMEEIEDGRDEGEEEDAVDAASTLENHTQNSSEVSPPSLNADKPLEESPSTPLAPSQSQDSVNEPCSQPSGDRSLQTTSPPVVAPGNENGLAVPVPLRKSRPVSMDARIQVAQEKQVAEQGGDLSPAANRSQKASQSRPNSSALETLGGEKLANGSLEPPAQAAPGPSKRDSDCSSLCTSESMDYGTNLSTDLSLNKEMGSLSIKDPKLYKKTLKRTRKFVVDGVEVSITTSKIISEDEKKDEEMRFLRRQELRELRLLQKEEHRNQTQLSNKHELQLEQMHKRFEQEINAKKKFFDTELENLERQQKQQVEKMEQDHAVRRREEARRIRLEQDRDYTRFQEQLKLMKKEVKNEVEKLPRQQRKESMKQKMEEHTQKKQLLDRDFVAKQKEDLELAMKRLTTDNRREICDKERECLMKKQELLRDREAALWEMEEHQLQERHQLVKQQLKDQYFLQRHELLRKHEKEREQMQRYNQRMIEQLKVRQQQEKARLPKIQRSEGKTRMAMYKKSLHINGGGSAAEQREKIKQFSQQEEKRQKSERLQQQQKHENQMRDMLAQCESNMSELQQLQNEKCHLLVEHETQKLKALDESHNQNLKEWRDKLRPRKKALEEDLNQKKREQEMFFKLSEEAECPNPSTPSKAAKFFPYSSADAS
Sequence of Tyrosine-protein kinase ABL1 (Homo sapiens), P00519 [F317L] (P00519 whole entry F317L): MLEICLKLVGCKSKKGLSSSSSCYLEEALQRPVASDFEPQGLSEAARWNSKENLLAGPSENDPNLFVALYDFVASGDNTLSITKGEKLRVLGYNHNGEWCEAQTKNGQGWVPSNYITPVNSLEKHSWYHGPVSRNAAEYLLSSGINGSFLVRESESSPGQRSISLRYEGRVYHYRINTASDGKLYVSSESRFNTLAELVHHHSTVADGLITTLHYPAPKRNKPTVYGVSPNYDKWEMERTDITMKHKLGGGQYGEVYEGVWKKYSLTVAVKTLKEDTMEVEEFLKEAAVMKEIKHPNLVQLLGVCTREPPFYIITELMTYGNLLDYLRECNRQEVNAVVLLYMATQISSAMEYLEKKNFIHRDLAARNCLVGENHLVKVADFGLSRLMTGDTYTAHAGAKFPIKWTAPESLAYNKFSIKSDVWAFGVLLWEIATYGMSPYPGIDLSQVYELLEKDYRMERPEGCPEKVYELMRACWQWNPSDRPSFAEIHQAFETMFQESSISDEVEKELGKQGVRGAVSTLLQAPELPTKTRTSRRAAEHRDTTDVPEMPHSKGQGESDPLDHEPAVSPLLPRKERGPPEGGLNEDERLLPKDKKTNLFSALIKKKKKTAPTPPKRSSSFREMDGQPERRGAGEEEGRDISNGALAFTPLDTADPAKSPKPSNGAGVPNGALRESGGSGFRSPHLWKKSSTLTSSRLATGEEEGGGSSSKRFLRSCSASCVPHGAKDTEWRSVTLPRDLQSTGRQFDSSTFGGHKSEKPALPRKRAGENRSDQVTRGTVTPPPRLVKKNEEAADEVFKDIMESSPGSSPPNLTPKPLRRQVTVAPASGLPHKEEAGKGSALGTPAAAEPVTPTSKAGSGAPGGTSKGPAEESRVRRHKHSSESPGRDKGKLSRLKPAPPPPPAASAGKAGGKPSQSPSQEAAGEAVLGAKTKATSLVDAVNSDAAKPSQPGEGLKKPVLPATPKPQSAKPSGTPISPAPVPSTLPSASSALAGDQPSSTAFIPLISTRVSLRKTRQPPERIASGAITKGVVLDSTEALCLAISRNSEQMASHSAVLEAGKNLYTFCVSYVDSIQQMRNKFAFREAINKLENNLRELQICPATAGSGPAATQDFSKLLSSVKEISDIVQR

With `CCN1CCN(Cc2ccc(NC(=O)c3ccc(C)c(/C=C/c4cnc5[nH]ccc5c4OC)c3)cc2C(F)(F)F)CC1`, in assay [1], the inhibition amounted to 100%.

Regarding `CCN1CCN(Cc2ccc(NC(=O)c3ccc(C)c(Oc4ccnc5[nH]ccc45)c3)cc2C(F)(F)F)CC1`, the inhibition in assay [2] was 0.1%; in assay [3] it was -9.6%; in assay [4], 13.5%; in assay [5], 17.7%; in assay [6], 1.4%.

On to `CNc1cc(Oc2cc(C(=O)Nc3cc(N4CCN(C)CC4)cc(C(F)(F)F)c3)ccc2C)ncn1`, for which the inhibition in assay [7] is 0.1%.

What is called inhibition is the relative decrease from the control value, in per cent.
